From US20120141491A1, “METHODS AND COMPOSITIONS FOR THE TREATMENT OF CANCERS AND PATHOGENIC INFECTIONS” (priority 2009, published 2012) come the findings set out here.

“Also recorded” adds a separate entry of the source. Where two headings read alike, the source gives them in different places.

Type in all cases: cell-based
The test system of series [1] is NeuT (Her2-positive breast cancer cell line) cells expressing GFP-LC3. Description: Autophagy response by GFP-LC3 localization in NeuT cells. The settings on record: enriched (Fed) medium. The procedure:
(§1) FIGS. 3A-3E. Effects of Bcl-XL targeted small compounds on the autophagy response and cell survival in NeuT cells. The positions of C4 in Site 1 (FIG. 3A), and C9 in Site 2 (FIG. 3B) of Bcl-xl are shown by in silico molecular docking. NeuT (Her2-positive breast cancer cell line) cells expressing GFP-LC3 were incubated in enriched (Fed) medium in the presence of C4 (FIG. 3C) and C9 (FIG. 3D) Bcl-targeted compounds. GFP-LC3 is found on autophagic vacuole that appear as dots (arrows). In FIG. 3E, the survival of NeuT cells was quantified after 20h of treatment with 0.1-1000 μM of Site 1 (C2 and C4) and Site 2 (C7 and C9) compounds.
(§2) Cell survival is suppressed by Bcl2-targeted compounds: Next, we examined the effects of the Bcl-xl targeted compounds C2, C4, C7, and C9 on autophagy and cell death in Her2/Neu-positive NeuT breast carcinoma cells (FIGS. 3A-E).

For a further series, the system named is protein degradation. Nature of the series: Protein degradation by pulse-chase methods using 14C-valine. The settings on record: for Rates of protein degradation (FIG. 5B): 14C-valine pulse-chase, compared to a control compound, n=6; for Stimulate Protein Degradation: Table 1; for Proteolysis, bar coding of FIG. 5A: black bar stimulated, striped bar inhibited. The procedure: (§3) FIGS. 5A-5C. Characterization of proBeclin 1 compounds. Upon ranking 100 NCl compounds by in silico docking to Bcl-xl, the autophagy responses were evaluated in fed Saos-2 cells expressing GFP-LC3 (FIG. 5A). […] Cells were maintained in nutrient-rich medium in the absence and presence of Bcl-targeted compounds for 4 hr. The cells were then solubilized, Beclin 1 complex immunoprecipitated, and the Beclin 1 hound proteins identified by Western blotting (FIG. 5C). The IgG-LC is the immunoglobin light chain of the anti-Beclin 1 antibody that was used to immunoprecipitate the complex. The absence of Bcl-xl is indicative of an inhibition of Beclin 1 binding.
(§4) When autophagy is suppressed, GFP-LC3 distributes uniformly throughout the cellular cytoplasm (FIG. 4A). Autophagy response can be observed by visualizing the punctuate pattern of GFP-LC3 indicative of the presence of autophagic vacuoles. We can also use tandem-labeled LC3, RFP-GFP-LC3 to better assess the dynamics of the autophagy response by visualizing both autophagosomes and autolysosomes (FIG. 4D-4F). […] To further substantiate that the accumulation of GFP-LC3 structures is not due to a blockage of basal autophagy but the positive effects of the compounds on the autophagy response, the autophagy response is validated by quantitative protein turnover measures using radiolabeled amino acids (FIG. 5B). Finally, we determine whether the compound interferes with Beclin 1 binding to Bcl-xl (FIG. 5C) and Bcl-2 as we would suspect if the compound acts through the intended novel mechanism of action.

Series [2] deals with Saos-2 osteosarcoma cells expressing GFP-LC3. Description: Autophagy response by punctate localization of GFP-LC3 to autophagic vacuoles, fluorescence microscopy. The note with it: for Stimulation of autophagy compared with amino acid and serum starved cells (FIG. 2G): 100 μM; for Stimulation of autophagy compared with amino acid and serum starved cells (FIG. 2G) / Enhancement of autophagy (GFP-LC3 at autophagic vacuoles): enriched (Fed) medium; for Localization of GFP-LC3 to autophagic vacuoles (FIG. 4): 100 mM Bcl-targeted compounds, fed Saos2 cells; for Activate Autophagy Response: Table 1; for Induction of autophagy: Table 2. The procedure: FIGS. 2A-2G. Activation of autophagy by Bcl-XL targeting compounds. The positions of C2 in Site 1 (FIG. 2A), C5 in Site 1 (FIG. 2B), and C8 in Site 2 (FIG. 2C) of Bcl-xl are shown by in silico molecular docking. Saos-2 osteosarcoma cells expressing GFP-LC3 were incubated in enriched (Fed) medium in the presence of C2 (FIG. 2D), C5 (FIG. 2E) and C8 (FIG. 2F) Bcl-targeted compounds. GFP-LC3 is found diffuse throughout the cytosol and nucleus when autophagy is suppressed. Ongoing autophagy can be visualized by the presence of GFP-LC3 at autophagic vacuoles (AVs) that appear as dots (arrows). […] In FIG. 2E, Saos-2 osteosarcoma cells expressing GFP-LC3 were incubated in enriched (Fed) medium in the absence and presence of Bcl-targeted compounds or in medium lacking amino acids and serum (Starved).
(§5) FIG. 4A-4F. Activation of autophagy by Bcl-targeted compounds. The localization of GFP-LC3 to autophagic vacuoles was enhanced by […] Bcl-targeted compounds in Saos-2 osteosarcoma cells. The autophagy response in fed Saos2 cells was measured in the absence and presence of anti-Bcl compounds by visualizing the punctate localization of GFP-LC3 (FIGS. 4A-4C) and RFP-GFP-LC3 (FIGS. 4D-4F) to autophagic vacuoles. In untreated fed cells, the GFP-LC3 is localized uniformly throughout the cell. […] Autophagy in cells expressing RFP-GFP-LC3 (FIGS. 4D-4F) was activated with compound B2-1. Structures containing RFP (red, FIG. 4D) and GFP (green, FIG. 4E) are autophagosomes (arrow), while RFP (red, FIG. 4D) structures are autolysosomes (arrowhead).
as §3
This was done in Saos-2 osteosarcoma cells stably expressing the autophagosome marker, GFP-LC3. In fed cells not undergoing autophagy GFP-LC3 is a soluble protein found throughout the cytosol. In amino acid and serum starved cells, autophagy is activated and GFP-LC3 becomes associated with autophagic vacuoles that can be visualize by fluorescence microscopy.
as §4

Another series relates to Beclin 1/Bcl binding. Description: Beclin 1/Bcl binding by immunoprecipitation with anti-Beclin 1 antibodies and Western blotting. The settings on record: for Inhibit Beclin 1 Binding: Table 1; for Beclin 1 binding to Bcl-xl / Bcl proteins: nutrient-rich medium, 4 hr. An excerpt:
FIGS. 5A-5C. Characterization of proBeclin 1 compounds. […] Cells were maintained in nutrient-rich medium in the absence and presence of Bcl-targeted compounds for 4 hr. The cells were then solubilized, Beclin 1 complex immunoprecipitated, and the Beclin 1 hound proteins identified by Western blotting (FIG. 5C). The IgG-LC is the immunoglobin light chain of the anti-Beclin 1 antibody that was used to immunoprecipitate the complex.
Autophagy response can be observed by visualizing the punctuate pattern of GFP-LC3 indicative of the presence of autophagic vacuoles. We can also use tandem-labeled LC3, RFP-GFP-LC3 to better assess the dynamics of the autophagy response by visualizing both autophagosomes and autolysosomes (FIG. 4D-4F). […] Finally, we determine whether the compound interferes with Beclin 1 binding to Bcl-xl (FIG. 5C) and Bcl-2 as we would suspect if the compound acts through the intended novel mechanism of action.

A further series concerns NeuT cells. How it is done:
as §1, §2

Series [3] concerns Saos2 cells expressing RFP-GFP-LC3. Nature of the series: Autophagy flux with tandem-labeled RFP-GFP-LC3 (autophagosomes and autolysosomes). The note with it: fed Saos2 cells; listed as B2-1. The procedure:
as §5
When autophagy is suppressed, GFP-LC3 distributes uniformly throughout the cellular cytoplasm (FIG. 4A). Autophagy response can be observed by visualizing the punctuate pattern of GFP-LC3 indicative of the presence of autophagic vacuoles. […] To further substantiate that the accumulation of GFP-LC3 structures is not due to a blockage of basal autophagy but the positive effects of the compounds on the autophagy response, the autophagy response is validated by quantitative protein turnover measures using radiolabeled amino acids (FIG. 5B). […]

As for `Nc1nc(S)c2ncn(C3CC(O)C(COP(=O)(O)O)O3)c2n1` (stereo not drawn) [NSC94668], the “Autophagy in NeuT cells” value in series [1] is “enhanced autophagy”. For the same compound, the “Rates of protein degradation (FIG. 5B)” value in the series with protein degradation (listed as Bx-22) was “elevated; also recorded: activate”. The “Stimulate Protein Degradation” value in the series with protein degradation is “Yes”. Also, in series [2], the “Stimulation of autophagy compared with amino acid and serum starved cells (FIG. 2G)” value is recorded as “promote autophagy”; the “Localization of GFP-LC3 to autophagic vacuoles (FIG. 4)” value is given as “autophagic vacuoles are visualize as dots or ring-like structures”; the “Activate Autophagy Response” value was “Yes”; the Induction of autophagy entry is on record as “Induces autophagy”. The “Enhancement of autophagy (GFP-LC3 at autophagic vacuoles)” value (“Enhancement of autophagy” for short) in series [2] was “activate autophagy”. Also, the “Inhibit Beclin 1 Binding” value in the series with Beclin 1/Bcl binding is recorded as “No”. In addition, in the series on Beclin 1/Bcl binding (listed as Bx-22), the “Beclin 1 binding to Bcl-xl / Bcl proteins” value is reported as “did not; also recorded: do not appear to affect Beclin 1 binding”. Further, the “Induction of cell death” value in the series on NeuT cells was “causes cell death”.

Consider `CCCCC(CC)CN1CN(CC(CC)CCCC)CC(C)(N)C1` (stereo not drawn) [NSC17764, 5-pyrimidinamine, 1,3-bis(2-ethylhexyl)hexhydro-5-methyl-], for which the “Rates of protein degradation (FIG. 5B)” value with protein degradation (listed as Bx-11) is “suppressed protein degradation; also recorded: inhibit protein degradation”. Further, in the series on protein degradation, the “Stimulate Protein Degradation” value is given as “No” and the “Proteolysis, bar coding of FIG. 5A” value is recorded as “inhibited”. Moreover, in series [2] (listed as C5), the “Stimulation of autophagy compared with amino acid and serum starved cells (FIG. 2G)” value was “promote autophagy; also recorded: stimulated autophagy to levels seen in amino acid and serum starved cells”; the “Enhancement of autophagy” value was “enhanced autophagy”. In series [2], the “Activate Autophagy Response” value is “Yes” and the Induction of autophagy entry is listed as “Induces”. Also, the “Enhancement of autophagy” value in series [2] (listed as Bx-11) is “promotes an accumulation of GFP-LC3 structures; also recorded: promote the accumulation of autophagic vacuoles”. Further, the “Inhibit Beclin 1 Binding” value in the series with Beclin 1/Bcl binding is “No”. Besides, the “Induction of cell death” value in the series with NeuT cells is listed as “causes cell death”.

On to `O=C(C[N+]12CN3CN(CN(C3)C1)C2)c1ccc2ccccc2c1.[Br-]` [NSC36400], for which the “Autophagy in NeuT cells” value in series [1] is reported as “enhanced autophagy”. Moreover, in series [2], the “Stimulation of autophagy compared with amino acid and serum starved cells (FIG. 2G)” value was “promote autophagy”; the “Activate Autophagy Response” value is given as “Yes”; the Induction of autophagy result is reported as “Induces autophagy”. Moreover, in the series with Beclin 1/Bcl binding, the “Inhibit Beclin 1 Binding” value is given as “No”. Further, in the series with NeuT cells (Table 2, cells not given), the “Induction of cell death” value is recorded as “causes cell death”.

Take `CN(C)CCCN1CC2CCCCC2C1` (stereo not drawn) [NSC43537, 3-(1,3,3a,4,5,6,7,7a-octahydroisoindol-2-yl)-N,N-dimethylpropan-1-amine]: the “Rates of protein degradation (FIG. 5B)” value in the series with protein degradation (listed as B2-1) was “elevated; also recorded: stimulate”. For the same compound, in the series with protein degradation, the “Stimulate Protein Degradation” value is reported as “Yes” and the “Proteolysis, bar coding of FIG. 5A” value is reported as “stimulated proteolysis”. For the same compound, the “Autophagy / autophagy flux in cells expressing RFP-GFP-LC3” value in series [3] is “activated; also recorded: autophagy flux is enhanced”. For the same compound, in series [2], the “Activate Autophagy Response” value is on record as “Yes”, the Induction of autophagy result is “NSC 43537 Induces autophagy; not tested for the induction of cell death” and the “Enhancement of autophagy” value was “stimulate autophagy”. Moreover, in the series with Beclin 1/Bcl binding, the “Inhibit Beclin 1 Binding” value was “Yes” and the “Beclin 1 binding to Bcl-xl / Bcl proteins” value is listed as “inhibiting Beclin 1 binding”.

With `Nc1c(/N=N/c2ccc(S(=O)(=O)Nc3cnccn3)cc2)cc(S(=O)(=O)O)c2ccccc12` [NSC31331], the “Autophagy in NeuT cells” value in series [1] is “induced autophagy”. In addition, the “Rates of protein degradation (FIG. 5B)” value in the series on protein degradation was “elevated”. Moreover, in series [2], the “Stimulation of autophagy compared with amino acid and serum starved cells (FIG. 2G)” value was “promote autophagy”; the “Localization of GFP-LC3 to autophagic vacuoles (FIG. 4)” value is on record as “autophagic vacuoles are visualize as dots or ring-like structures”; the “Activate Autophagy Response” value is on record as “Yes”; the Induction of autophagy entry is “Induces autophagy”. Moreover, in series [2], the “Enhancement of autophagy” value is “stimulate autophagy”. In addition, in the series with Beclin 1/Bcl binding, the “Inhibit Beclin 1 Binding” value is given as “Yes” and the “Beclin 1 binding to Bcl-xl / Bcl proteins” value is “interfere with Beclin 1 binding”.
